Measured values taken from article PMC2882366 (PLoS ONE, 2010).
Where two headings read alike, the source gives them in different places.

Legend:
[1] = tested on: p-S6RP in human breast cancer cell lines (MCF7 and MDA231); experiment: Immunoblot of p-S6RP in human breast cancer cell lines; type: cell-based; conditions: 100 nM, MCF7 and MDA231 cells
Description: (§1) Protein concentration of lysates was determined by BCA protein assay (Pierce, Thermo Fischer Scientific, Rockford, IL). Lysates were separated with Invitrogen NuPage gels (Invitrogen, Carlsbad, CA) and transferred to nitrocellulose membranes. The blots were probed for the proteins of interest with specific antibodies followed by a secondary antibody (Cell Signaling Technology, Inc, Danvers, MA) and then incubated with SuperSignal chemiluminescence substrate (Pierce). The blots were then exposed to Kodak Biomax Light Film (Kodak, Rochester, NY). The antibodies against AKT and p-AKT (Ser473), S6RP and p-S6RP, and actin were obtained from Cell Signaling.
(§2) Controls were Jurkat cells treated with LY (−) or PMA (+). B. Quantitative determination of total and p-S6RP (S240/244) with electrochemiluminescence (ECL) assay. C. […] (1.56 MB TIF) Click here for additional data file.

[2] = tested on: dogs with appendicular osteosarcoma
Description: All dogs underwent a pre-treatment tumor biopsy and collection of PBMC at study initiation. […] The defined study period was 15 days. Safety, tumoral pharmacodynamic (PD) modulation, correlation to surrogates (PBMC), and the relationship between PK and PD were study endpoints.
Escalation through 5 planned dose cohorts was based on assessment of dose limiting toxicities (DLT) using VCOG modified-CTCAE convention [32]. Age (range, 3.7–11.9 years; median 7.9 years), sex (14 spayed females, 8 castrated males) and breed (5 mixed-breed and 17 purebred) were recorded for all dogs enrolled on study ( Table 3 : Patient Characteristics).
Dogs underwent a complete physical examination, CBC, serum biochemical profile, UA and pre-treatment biopsies at Day 0. Vital signs (core temperature, pulse, respiratory rate) were recorded at baseline. […] Owners completed an Owner Assessment Form on Days 0, 8 and 15 to record impressions of their dog's clinical status throughout the study period.
Blood samples were collected to define hematologic and biochemical DLT. CBC, biochemical profile and urinalysis were evaluated at Day 0, and then weekly (pre-operatively at Day 8 and Day 15) to define safety. The Veterinary Cooperative Oncology Group Common Toxicity Criteria for Adverse Events (VCOG-CTCAE) was used to determine DLT, defined as any grade 3 or grade 4 (hematologic or non-hematologic) events [32]. […] MTD was defined as one dose level below the maximum achieved in dose-escalation. Any and all adverse events were collected within the electronic database reporting system (C3D) following strict one-week reporting timelines.

[3] = tested on: p-S6RP in canine osterosarcoma cell lines (BM, SK); experiment: Immunoblot of p-S6RP in canine osteosarcoma cell lines; type: cell-based; conditions: 100 nM, BM and SK cells
Description: as §1, §2

[4] = Rapamycin whole blood pharmacokinetics (HPLC-MS/MS, non-compartmental) in dogs with osteosarcoma; type: in vivo, dog; conditions: for measurable trough levels: CD8, CD9; for concentration at 15 day / concentration at 8 day / concentration at 9 day / concentration at 48 h / Tmax / half-life / Cmax / AUC(0-t): dog, whole blood; for concentration at 15 day / concentration at 8 day / concentration at 9 day / concentration at 48 h: intramuscular; for concentration at 15 day: Day 15 (seven days after cessation), read-out: CD15; for concentration at 8 day: trough Day 8, median (range), read-out: CD8; for concentration at 9 day: trough Day 9, median (range), read-out: CD9; for concentration at 48 h: 48 h after first dose, read-out: C48h; for AUC(0-t): read-out: AUC0–48
Description: Subsequent doses were administered on days 3–8. Additional pharmacokinetic samples were obtained on days 8 (192h, day of definitive resection) and 9 (hr 216, after last day of dosing) and 15 (360 hr). […] Whole blood was transferred to cyrovials and stored at −80°C until analysis. Whole blood, serum and plasma were collected from all patients. Serum and plasma samples were stored for post-hoc hypothesis generating assessments.
The eluate was analyzed using HPLC with MS/MS detection. […] Clinical sample results were calculated using peak area ratios and calibration curves were generated using a weighted (1/x^2) linear least-squares regression. […] All data were acquired, processed, and reported using Applied Biosystems/MDS-Sciex Analyst Version 1.4 software (www.lifetechnologies.com, Carlsbad, CA).
Area under the concentration time curve to the time point measured at 48hr after the first dose (AUC0–48h) was calculated with the linear trapezoidal method. The terminal rate constant was derived from the slope of the natural log transformed concentrations and times on the terminal elimination phase of the decay curve. Terminal elimination half-life was calculated by dividing 0.693 by the terminal rate constant. The relationship of pharmacokinetic parameters and pharmacodynamic variables were examined using scatter plots.

[5] = tested on: p/t-S6RP (S240/244) in canine osteosarcoma cell lines (BW and SK); experiment: ECL quantification of p/t-S6RP in canine osteosarcoma cell lines; type: cell-based
Description: as §1
The samples (cell lines, tumor, PBMC) used for ECL were prepared based on the Meso-Scale Discovery (MSD) lysate preparation protocol (Meso-Scale Discovery, Gaithersburg, MD) using complete lysis buffer with protease and phosphatase inhibitors. For quantitative analysis of phospho-proteins, duplex t/p-AKT (S473) and duplex t/p-S6RP (S240/S244) were obtained from MSD, used following manufacturer's instructions, and read with Sector Imager 2400 (MSD). A total of 25 ug of lysates were used per well for the duplex assays. Out of the 19 paired tumor biopsies analyzed, 9 were excluded due to values below the detection limit, of which 8 were from one trial site. […] PBMC from 8 patients were analyzed for p-S6RP/t-S6RP and all data was shown. […]

p/t-S6RP in PBMC = experiment: PBMC p-S6RP/t-S6RP by electrochemiluminescence; type: in vivo, dog
Description: Modulation of mTOR pathway targets were evaluated in matched tumor ( Figure 4A .) and PBMC samples ( Figure 4B .) to compare p-S6RP and p-AKT expression pre- and post-rapamycin treatment. ECL techniques were utilized to accurately quantify the relative percentage of phospho-protein over total protein (p/t) in tumor and PBMC. Quality control assessments defined 10 tumor and 8 PBMC samples eligible for evaluation. […] Modulation of mTOR pathway targets in PBMC and tumor samples were concordant.
PBMCS were collected in two (2) 8 ml BD CPT vacutainers (Becton Dickinson, Franklin Lakes, NJ) with sodium heparin, each filled completely with whole blood. […]
The samples (cell lines, tumor, PBMC) used for ECL were prepared based on the Meso-Scale Discovery (MSD) lysate preparation protocol (Meso-Scale Discovery, Gaithersburg, MD) using complete lysis buffer with protease and phosphatase inhibitors. For quantitative analysis of phospho-proteins, duplex t/p-AKT (S473) and duplex t/p-S6RP (S240/S244) were obtained from MSD, used following manufacturer's instructions, and read with Sector Imager 2400 (MSD). […] Out of the 19 paired tumor biopsies analyzed, 9 were excluded due to values below the detection limit, of which 8 were from one trial site. […] PBMC from 8 patients were analyzed for p-S6RP/t-S6RP and all data was shown.

[6] = both, various breeds (5 mixed-breed and 17 purebred dogs), dog, in vivo, 15 days
[7] = Mixed Breed (2 dogs), Boxer (1 dog), 0.04 mg/kg IM daily, N=3
[8] = Mixed Breed (2 dogs), Boxer (1 dog), 0.04 mg/kg IM, after first dose, median (range), N=3
[9] = 0.01 mg/kg IM, after first dose, median (range), N=3
[10] = 0.06 mg/kg IM, after first dose, median (range), N=7
[11] = 0.08 mg/kg IM, after first dose, median (range), N=4
[12] = 0.02 mg/kg IM, after first dose, median (range), N=4

## CO[C@H]1C[C@@H]2CC[C@@H](C)[C@@](O)(O2)C(=O)C(=O)N2CCCC[C@H]2C(=O)O[C@H]([C@H](C)C[C@@H]2CC[C@@H](O)[C@H](OC)C2)CC(=O)[C@H](C)/C=C(\C)[C@@H](O)[C@@H](OC)C(=O)[C@H](C)C[C@H](C)/C=C/C=C/C=C/1C [rapamycin, Rapamycin]
[1]
  rapamycin-mediated inhibition of p-S6RP (immunoblot): inhibition of p-S6RP
[2]; [6]
  anorexia, self-limiting non-dose limiting toxicity (grade 1,2), number of dogs: 2
  diarrhea, self-limiting non-dose limiting toxicity (grade 1,2), number of dogs: 1
  thrombocytopenia, self-limiting non-dose limiting toxicity (grade 1,2), number of dogs: 1
  vomiting, self-limiting non-dose limiting toxicity (grade 1,2), number of dogs: 2
[2]; dog, in vivo
  febrile episodes reported: two
  immunosuppression and surgical incision healing delays: Neither immunosuppression nor surgical incision healing delays were reported
  lymphopenia, post-operative infection rate, surgical incision healing delays: no evident lymphopenia, increased post-operative infection rate, nor surgical incision healing delays
  neurological, respiratory, renal, or biochemical toxicities related to treatment: no clinically significant
  tolerability of dose escalation: well tolerated
[2]; escalation to 0.08 mg/kg IM daily, n = 19
  maximally tolerated dose (MTD): not defined
[3]
  rapamycin-mediated inhibition of p-S6RP (immunoblot): inhibition of p-S6RP
[4]; 0.06 mg/kg (approx 2.1 mg/day) IM daily
  median trough concentrations on day 8 and 9 (CD8, CD9): greater than 10 ng/mL
[4]; 0.08 mg/kg (approx 2.8 mg/day) IM daily
  median trough concentrations on day 8 and 9 (CD8, CD9): greater than 10 ng/mL
[4]; 4th dose cohort (0.06 mg/kg, approx 2.1 mg)
  measurable trough levels: ≥ 10 ng/mL
[4]; 5th dose cohort (0.08 mg/kg, approx 2.8 mg)
  measurable trough levels: ≥ 10 ng/mL
[4]; Mixed Breed (2 dogs), Boxer (1 dog), 0.04 mg/kg IM daily, median (range), N=3
  concentration at 15 day: 1.56 ng/mL
[4]; [7]
  concentration at 8 day: 6.62 ng/mL
  concentration at 9 day: 7.92 ng/mL
[4]; Mixed Breed (2 dogs), Boxer (1 dog), 0.04 mg/kg IM, median (range), N=3
  concentration at 48 h: 1.86 ng/mL
[4]; [8]
  Tmax: 24 h
  Cmax: 2.87 ng/mL
  AUC(0-t): 105 ng·h/mL
[4]; Mixed Breed (2 dogs), Boxer (1 dog), 0.04 mg/kg IM, terminal half-life, median (range), N=3, read-out: T1/2 (converted)
  half-life: 62.7 h
[4]; after 8 days of exposure, daily IM
  Steady state: not achieved
[4]; both sexes, all dogs, 0.01–0.08 mg/kg IM, range
  Tmax: 2 to 48 h
[4]; both sexes, dogs, IM, read-out: terminal half-life
  half-life: > 60 h
[4]; im, 0.01 mg/kg, read-out: T1/2 (converted)
  half-life: 115 h
[4]; 0.01 mg/kg IM daily, median (range), N=3
  concentration at 15 day: 0.45 ng/mL
[4]; 0.01 mg/kg IM daily, N=3
  concentration at 8 day: 2.78 ng/mL
  concentration at 9 day: 1.92 ng/mL
[4]; 0.01 mg/kg IM, median (range), N=3
  concentration at 48 h: 0.91 ng/mL
[4]; 0.02 mg/kg IM daily, median (range), N=4
  concentration at 15 day: 0.86 ng/mL
[4]; 0.02 mg/kg IM daily, N=4
  concentration at 8 day: 5.63 ng/mL
  concentration at 9 day: 5.93 ng/mL
[4]; 0.02 mg/kg IM, median (range), N=4
  concentration at 48 h: 1.26 ng/mL
[4]; 0.06 mg/kg IM daily, median (range), N=7
  concentration at 15 day: 1.04 ng/mL
[4]; 0.06 mg/kg IM daily, N=7
  concentration at 8 day: 9.84 ng/mL
  concentration at 9 day: 9.3 ng/mL
[4]; 0.06 mg/kg IM, median (range), N=7
  concentration at 48 h: 3.61 ng/mL
[4]; 0.08 mg/kg IM daily, median (range), N=4
  concentration at 15 day: 3.66 ng/mL
[4]; 0.08 mg/kg IM daily, N=4
  concentration at 8 day: 15.4 ng/mL
  concentration at 9 day: 16.4 ng/mL
[4]; 0.08 mg/kg IM, median (range), N=4
  concentration at 48 h: 4.6 ng/mL
[4]; [9]
  Tmax: 24 h
  Cmax: 1.27 ng/mL
  AUC(0-t): 47.4 ng·h/mL
[4]; 0.02 mg/kg IM, after first dose, median, N=4
  Tmax: 24 h
[4]; 0.02 mg/kg IM, terminal half-life, median (range), N=4, read-out: T1/2 (converted)
  half-life: 70.8 h
[4]; [10]
  Tmax: 6 h
  Cmax: 7.29 ng/mL
  AUC(0-t): 285 ng·h/mL
[4]; 0.06 mg/kg IM, terminal half-life, median (range), N=7, read-out: T1/2 (converted)
  half-life: 72.7 h
[4]; [11]
  Tmax: 15 h
  Cmax: 12.1 ng/mL
  AUC(0-t): 309 ng·h/mL
[4]; 0.08 mg/kg IM, terminal half-life, median (range), N=4, read-out: T1/2 (converted)
  half-life: 86.6 h
[4]; [12]
  Cmax: 1.69 ng/mL
  AUC(0-t): 64.3 ng·h/mL
[4]; dose range 0.01–0.08 mg/kg IM
  systemic exposure (Cmax and AUC0–48h) versus dose: increased proportionally to rapamycin dose
[5]; BW and SK cells, rapamycin 100 nM for 4 hours vs untreated controls
  reduction of p/t-S6RP: approximately 50 ×
[5]; canine osteosarcoma cell lines, western blot and ECL
  inhibition of down-stream targets of mTOR: inhibits down-stream targets of mTOR in a dose-dependent fashion
p/t-S6RP in PBMC; Day 8, maintained through Day 15, n = 8, p<0.0001
  PBMC p/t-S6RP inhibition: highly significant
p/t-S6RP in PBMC; Day 8 after rapamycin therapy
  dogs with PBMC phosphorylation of S6RP significantly inhibited: 8/8
